The text below walks through data of patent US9051311B2, “Sulfamide sodium channel inhibitors” (AMGEN INC., priority 2012, dated 2015).

Counter-ions that a name gives are not always drawn. Where only a bound is given, the exact number is not on record here.

Series [1] deals with T1, Nav 1.7 (Homo sapiens (Human), UniProt Q15858). Description: Nav 1.7 IonWorks Quattro (IWQ) in vitro assay, population patch-clamp.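 Further: cells held at −110 mV for 3 s, then 26 pulses of 150 ms at 5 Hz, leak-corrected peak current, percent block measured before and after compound, 3–8 min exposure.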 The class given is cell-based. The following applies: 293 cells stably transfected with Nav 1.7; block at 26th pulse to −20 mV.
Experimental: (§1) Nav 1.7 and Nav 1.5 Ion Works Quattro (IWQ) In Vitro Assays
(§2) 293 cells stably transfected with either Nav 1.7 or with Nav 1.5 were recorded in population patch-clamp mode with the IonWorks® Quattro automated electrophysiology system in accordance with the manufacturer's specifications (Molecular Devices, LLC, Sunnyvale, Calif.). Sodium channel currents were measured in response to a train of depolarizations that induced successively greater inactivation.
(§3) Cells were held at −110 mV for three seconds (Nav 1.7) or half a second (Nav 1.5) from a holding voltage of −15 mV, then put through a series of 26 pulses of 150 msec duration to −20 mV at a frequency of 5 Hz. Cells were then left unclamped for a period of 3 to 8 minutes while a single concentration of test compound was added. Cells were then reclamped and put through the same voltage protocol. Current at the end of the 26th pulse to −20 mV was subtracted from the peak current evoked by the 26th pulse to −20 mV to correct for leak current. Percent block was calculated for each concentration in duplicate, and IC50 curves were fitted to percent block as a function of concentration.
In series [2] the target is T2, Nav 1.5 (Homo sapiens (Human), UniProt Q14524). Nature of the series: Nav 1.5 IonWorks Quattro (IWQ) in vitro assay, population patch-clamp.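 Further: HEK293 cells stably expressing Nav1.5, sodium current at the 26th of 26 pulses to −20 mV (150 ms, 5 Hz) after compound versus before, leak-corrected, 3–8 min exposure.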 The following applies: read-out: Nav 1.5 (IWQ) IC50; 293 cells stably transfected with Nav 1.5; block at 26th pulse to −20 mV. Background: Patch clamp records ionic current or voltage across a cell membrane.
Experimental: as §1, §2, §3
Series [3] has as its target T1, Nav 1.7. Description: Nav 1.7 in vitro PatchExpress (PX) assay, whole cell voltage clamp. The class given is cell-based. The following applies: 293 cells stably transfected with human Nav1.7; partially inactivated state (20 to 50% inactivation). The procedure:
Nav 1.7 In Vitro PatchExpress (PX) Assay
293 cells stably transfected with human Nav1.7 were recorded in whole cell voltage clamp mode with the PatchXpress automated electrophysiology system (Molecular Devices, LLC, Sunnyvale, Calif.). Compound effects were measured on a partially inactivated state of the sodium channel. Cells were clamped to a holding potential yielding 20 to 50% inactivation. To elicit sodium current, channels were activated by pulsing to −10 mV for 20 msec. This voltage protocol was repeated at a rate of 0.1 Hz throughout the experiment. A single concentration of test compound was applied to cells for a duration of 3 minutes. Peak sodium current was measured at the end of the compound addition period to determine percent inhibition.

In series [4] the target is T2, Nav 1.5. Description: cell-based.
Experimental: as §1, §2, §3

T2 sequence (Q14524 whole entry): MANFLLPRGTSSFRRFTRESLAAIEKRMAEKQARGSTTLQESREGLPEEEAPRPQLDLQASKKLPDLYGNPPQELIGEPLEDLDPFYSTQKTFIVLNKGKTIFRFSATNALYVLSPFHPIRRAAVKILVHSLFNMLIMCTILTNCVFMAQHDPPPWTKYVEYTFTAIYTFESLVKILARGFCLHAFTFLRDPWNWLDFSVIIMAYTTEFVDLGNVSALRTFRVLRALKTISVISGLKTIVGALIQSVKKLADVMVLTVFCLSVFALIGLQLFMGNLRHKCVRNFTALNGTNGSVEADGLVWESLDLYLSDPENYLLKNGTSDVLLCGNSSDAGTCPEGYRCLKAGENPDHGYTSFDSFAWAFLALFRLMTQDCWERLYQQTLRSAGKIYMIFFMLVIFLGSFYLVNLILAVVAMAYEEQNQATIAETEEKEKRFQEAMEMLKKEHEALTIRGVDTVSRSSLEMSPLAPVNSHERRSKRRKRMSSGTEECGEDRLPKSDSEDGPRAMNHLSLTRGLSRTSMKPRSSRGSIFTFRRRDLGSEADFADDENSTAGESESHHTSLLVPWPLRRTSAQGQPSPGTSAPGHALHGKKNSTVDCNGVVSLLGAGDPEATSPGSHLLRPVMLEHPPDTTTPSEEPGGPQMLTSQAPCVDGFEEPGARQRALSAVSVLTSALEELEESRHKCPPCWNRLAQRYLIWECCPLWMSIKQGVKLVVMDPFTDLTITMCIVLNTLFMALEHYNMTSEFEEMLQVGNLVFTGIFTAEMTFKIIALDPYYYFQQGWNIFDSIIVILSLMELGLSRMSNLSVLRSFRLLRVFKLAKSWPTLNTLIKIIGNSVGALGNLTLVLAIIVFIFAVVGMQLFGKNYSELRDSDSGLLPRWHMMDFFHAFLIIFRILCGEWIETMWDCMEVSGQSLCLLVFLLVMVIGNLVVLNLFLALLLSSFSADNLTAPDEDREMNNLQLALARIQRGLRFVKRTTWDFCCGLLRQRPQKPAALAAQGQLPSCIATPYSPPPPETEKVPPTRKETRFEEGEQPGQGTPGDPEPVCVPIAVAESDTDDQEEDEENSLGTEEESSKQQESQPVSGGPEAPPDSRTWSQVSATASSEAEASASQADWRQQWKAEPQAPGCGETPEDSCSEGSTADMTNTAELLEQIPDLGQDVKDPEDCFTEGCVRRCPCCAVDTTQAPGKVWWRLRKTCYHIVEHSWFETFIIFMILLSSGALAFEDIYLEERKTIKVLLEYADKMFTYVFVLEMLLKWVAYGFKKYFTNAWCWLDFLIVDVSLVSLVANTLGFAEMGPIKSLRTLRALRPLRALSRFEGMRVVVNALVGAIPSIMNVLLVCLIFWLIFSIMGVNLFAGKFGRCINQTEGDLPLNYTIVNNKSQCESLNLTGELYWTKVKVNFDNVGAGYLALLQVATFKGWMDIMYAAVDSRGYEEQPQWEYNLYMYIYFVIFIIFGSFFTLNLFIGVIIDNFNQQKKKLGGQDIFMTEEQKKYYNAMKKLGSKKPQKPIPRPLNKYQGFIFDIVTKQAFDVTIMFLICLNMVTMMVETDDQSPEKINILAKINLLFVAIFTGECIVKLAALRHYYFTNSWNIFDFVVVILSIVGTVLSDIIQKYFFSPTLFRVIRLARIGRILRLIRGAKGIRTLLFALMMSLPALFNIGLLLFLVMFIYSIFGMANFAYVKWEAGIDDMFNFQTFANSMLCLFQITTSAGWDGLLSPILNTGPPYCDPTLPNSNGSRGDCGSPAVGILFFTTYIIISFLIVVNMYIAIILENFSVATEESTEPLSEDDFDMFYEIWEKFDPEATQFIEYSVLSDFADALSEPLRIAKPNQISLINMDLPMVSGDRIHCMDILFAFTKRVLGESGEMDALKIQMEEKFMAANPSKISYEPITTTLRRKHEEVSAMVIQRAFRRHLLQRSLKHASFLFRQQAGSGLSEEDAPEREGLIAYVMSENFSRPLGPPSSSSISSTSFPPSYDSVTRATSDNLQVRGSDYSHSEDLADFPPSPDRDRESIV
T1 sequence (Q15858 whole entry): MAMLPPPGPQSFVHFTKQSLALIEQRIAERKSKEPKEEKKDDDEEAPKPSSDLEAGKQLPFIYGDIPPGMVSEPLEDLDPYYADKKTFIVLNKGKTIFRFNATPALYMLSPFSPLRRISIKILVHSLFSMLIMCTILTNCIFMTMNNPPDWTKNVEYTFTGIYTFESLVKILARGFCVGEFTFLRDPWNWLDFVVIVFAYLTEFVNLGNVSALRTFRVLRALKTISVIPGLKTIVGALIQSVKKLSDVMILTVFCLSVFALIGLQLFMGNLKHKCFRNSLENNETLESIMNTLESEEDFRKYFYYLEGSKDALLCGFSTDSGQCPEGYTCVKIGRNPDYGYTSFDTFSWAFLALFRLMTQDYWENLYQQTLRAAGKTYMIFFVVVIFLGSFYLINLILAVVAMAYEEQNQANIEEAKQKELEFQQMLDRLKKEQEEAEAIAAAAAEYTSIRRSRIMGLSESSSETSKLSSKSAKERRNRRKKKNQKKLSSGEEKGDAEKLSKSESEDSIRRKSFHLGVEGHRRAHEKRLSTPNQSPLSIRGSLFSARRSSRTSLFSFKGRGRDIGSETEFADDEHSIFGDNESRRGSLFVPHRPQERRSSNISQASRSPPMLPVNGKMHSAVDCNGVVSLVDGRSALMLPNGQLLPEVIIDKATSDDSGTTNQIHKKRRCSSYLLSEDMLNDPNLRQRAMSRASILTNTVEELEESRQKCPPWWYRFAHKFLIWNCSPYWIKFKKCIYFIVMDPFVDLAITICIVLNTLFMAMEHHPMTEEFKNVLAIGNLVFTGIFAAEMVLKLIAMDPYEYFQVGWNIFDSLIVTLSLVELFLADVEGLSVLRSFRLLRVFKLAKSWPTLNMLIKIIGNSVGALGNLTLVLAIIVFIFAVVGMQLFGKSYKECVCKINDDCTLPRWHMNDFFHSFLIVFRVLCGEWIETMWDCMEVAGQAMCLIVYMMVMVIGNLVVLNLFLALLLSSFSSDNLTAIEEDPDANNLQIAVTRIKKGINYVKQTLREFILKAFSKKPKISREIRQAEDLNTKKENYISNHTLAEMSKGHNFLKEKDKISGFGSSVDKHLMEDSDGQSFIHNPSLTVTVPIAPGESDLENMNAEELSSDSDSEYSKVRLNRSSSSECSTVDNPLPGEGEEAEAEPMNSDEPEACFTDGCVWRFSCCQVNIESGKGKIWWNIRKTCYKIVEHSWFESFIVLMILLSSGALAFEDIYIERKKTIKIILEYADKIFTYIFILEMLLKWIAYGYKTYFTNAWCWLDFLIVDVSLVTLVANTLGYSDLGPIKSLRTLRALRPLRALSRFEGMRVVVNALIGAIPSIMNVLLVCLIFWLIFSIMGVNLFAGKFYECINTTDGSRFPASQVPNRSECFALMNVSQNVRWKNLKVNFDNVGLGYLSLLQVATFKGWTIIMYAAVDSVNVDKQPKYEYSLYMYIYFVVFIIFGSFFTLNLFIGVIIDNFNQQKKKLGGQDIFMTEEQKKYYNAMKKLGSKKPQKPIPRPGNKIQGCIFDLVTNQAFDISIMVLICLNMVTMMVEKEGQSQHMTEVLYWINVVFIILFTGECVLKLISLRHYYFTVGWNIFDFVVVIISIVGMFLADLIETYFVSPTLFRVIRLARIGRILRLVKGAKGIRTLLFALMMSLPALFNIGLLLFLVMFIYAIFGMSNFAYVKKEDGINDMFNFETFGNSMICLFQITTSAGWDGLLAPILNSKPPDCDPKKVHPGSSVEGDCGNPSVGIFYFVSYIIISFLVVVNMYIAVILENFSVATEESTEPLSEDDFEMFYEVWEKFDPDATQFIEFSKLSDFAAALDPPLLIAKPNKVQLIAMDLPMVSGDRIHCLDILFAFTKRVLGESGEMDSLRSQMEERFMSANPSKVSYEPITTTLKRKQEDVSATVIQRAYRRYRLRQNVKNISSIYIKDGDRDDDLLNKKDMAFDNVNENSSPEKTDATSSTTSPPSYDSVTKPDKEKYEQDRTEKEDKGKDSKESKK

On to `CC(C)(C)OC(=O)N1CC=C(c2cc(C(F)(F)F)ccc2-c2cccc3c2CCN(S(=O)(=O)Nc2ncns2)C3)CC1` [Example 5, tert-Butyl 4-(2-(2-(N-(1,2,4-thiadiazol-5-yl)sulfamoyl)-1,2,3,4-tetrahydroisoquinolin-5-yl)-5-(trifluoromethyl)phenyl)-5,6-dihydropyridine-1(2H)-carboxylate], for which the concentration for half-maximal inhibition (IC50) in series [1] stood at 1030 nM; in series [2] it was 5630 nM; in series [3] it was 1700 nM.
On to `COc1ccc(-c2cccc3c2CCN(S(=O)(=O)Nc2ncns2)C3)c(OC)c1` [Example 26, 5-(2,4-Dimethoxyphenyl)-N-(1,2,4-thiadiazol-5-yl)-3,4-dihydroisoquinoline-2(1H)-sulfonamide], for which the IC50 is > 10000 nM in series [4], 1510 nM in series [1] and 2200 nM in series [3].
Consider `O=S(=O)(Nc1ncns1)N1CCc2c(cccc2-c2cccc3ccccc23)C1` [Example 24, 5-(Naphthalen-1-yl)-N-(1,2,4-thiadiazol-5-yl)-3,4-dihydroisoquinoline-2(1H)-sulfonamide], for which the results for the concentration for half-maximal inhibition (IC50) in series [4], in series [1] and in series [3] were > 10000 nM, 2680 nM and 4910 nM, respectively.
With `COc1cccc(OC)c1-c1cccc2c1CCN(S(=O)(=O)Nc1ncns1)C2` [Example 28, 5-(2,6-Dimethoxyphenyl)-N-(1,2,4-thiadiazol-5-yl)-3,4-dihydroisoquinoline-2(1H)-sulfonamide], the IC50 in series [4] is > 10000 nM; in series [1], 4670 nM; in series [3], > 30000 nM.
For `O=S(=O)(Nc1ncns1)N1CCc2c(cccc2-c2ccc(Cl)cc2)C1` [Example 10] the same measures were > 10000 nM, 5470 nM and 7460 nM.
For `COc1cc(C(F)(F)F)ccc1-c1ncnc2c1CCN(S(=O)(=O)Nc1nccs1)C2` [Example 59, 4-(2-methoxy-4-(trifluoromethyl)phenyl)-N-(thiazol-2-yl)-5,6-dihydropyrido[3,4-d]pyrimidine-7(8H)-sulfonamide], the IC50 is > 10000 nM in series [4], 87 nM in series [1] and 1050 nM in series [3].
`COc1cc(C(F)(F)F)ccc1-c1cccc2c1C(C)CN(S(=O)(=O)Nc1ncns1)C2` (racemic) [Example 48, 5-(2-Methoxy-4-(trifluoromethyl)phenyl)-4-methyl-N-(1,2,4-thiadiazol-5-yl)-3,4-dihydroisoquinoline-2(1H)-sulfonamide]: the IC50 in series [4] came out at 7260 nM; in series [1], 4100 nM; in series [3], 6110 nM.
`Cn1nccc1-c1cc(C(F)(F)F)ccc1-c1cccc2c1CCN(S(=O)(=O)Nc1ncccn1)C2` [Example 49, 5-(2-(1-Methyl-1H-pyrazol-5-yl)-4-(trifluoromethyl)phenyl)-N-(pyrimidin-2-yl)-3,4-dihydroisoquinoline-2(1H)-sulfonamide]: the values for the IC50 in series [4], in series [1] and in series [3] were > 10000 nM, 12700 nM and 14600 nM, respectively.
In the case of `COc1cc(C(F)(F)F)ccc1-c1ncnc2c1CCN(S(=O)(=O)Nc1ncns1)C2` [Example 61, 4-(2-methoxy-4-(trifluoromethyl)phenyl)-N-(1,2,4-thiadiazol-5-yl)-5,6-dihydropyrido[3,4-d]pyrimidine-7(8H)-sulfonamide], the values for the IC50 in series [4], in series [1] and in series [3] were > 10000 nM, 141 nM and 1210 nM, respectively.
Regarding `O=S(=O)(Nc1cnccn1)N1CCc2c(cccc2-c2ccc(C(F)(F)F)cc2C2=CCNCC2)C1` [Example 53, N-(Pyrazin-2-yl)-5-(2-(1,2,3,6-tetrahydropyridin-4-yl)-4-(trifluoromethyl)phenyl)-3,4-dihydroisoquinoline-2(1H)-sulfonamide hydrochloride], the IC50 in series [1] was 10500 nM; in series [2], > 10000 nM.
`O=S(=O)(Nc1ncns1)N1CCc2c(cccc2-c2ccc(C(F)(F)F)cc2Br)C1` [Example 4, 5-(2-Bromo-4-(trifluoromethyl)phenyl)-N-(1,2,4-thiadiazol-5-yl)-3,4-dihydroisoquinoline-2(1H)-sulfonamide]: the half-inhibitory concentration (IC50) in series [4] was > 10000 nM; in series [1], 527 nM; in series [3], 560 nM.
Take `Cc1cn(-c2cc(C(F)(F)F)ccc2-c2cccc3c2CCN(S(=O)(=O)Nc2ncc(F)s2)C3)cn1` [Example 42, N-(5-fluorothiazol-2-yl)-5-(2-(4-methyl-1H-imidazol-1-yl)-4-(trifluoromethyl)phenyl)-3,4-dihydroisoquinoline-2(1H)-sulfonamide]: the IC50 was > 10000 nM in series [4], 228 nM in series [1] and 1340 nM in series [3].
With `CN1CCN(c2cc(C(F)(F)F)ccc2-c2cccc3c2CCN(S(=O)(=O)Nc2ncc(F)s2)C3)CC1` [Example 41, N-(5-Fluorothiazol-2-yl)-5-(2-(4-methylpiperazin-1-yl)-4-(trifluoromethyl)phenyl)-3,4-dihydroisoquinoline-2(1H)-sulfonamide], the IC50 in series [4] is > 10000 nM; in series [1], 395 nM; in series [3], 7340 nM.
For `CC(C)(C)OC(=O)N1CCc2c(cccc2-c2cccc3c2CCN(S(=O)(=O)Nc2ncns2)C3)C1` [Example 58, tert-Butyl 2′-(N-(1,2,4-thiadiazol-5-yl)sulfamoyl)-1′,2′,3,3′,4,4′-hexahydro-[5,5′-biisoquinoline]-2(1H)-carboxylate], the figures for the half-maximal inhibitory concentration (IC50) in series [4], in series [1] and in series [3] were > 10000 nM, 15800 nM and 16500 nM, respectively.
As to `COc1cc(C(F)(F)F)ccc1-c1cccc2c1CCN(S(=O)(=O)Nc1ncns1)C2` [Example 44, 5-(2-Methoxy-4-(trifluoromethyl)phenyl)-N-(1,2,4-thiadiazol-5-yl)-3,4-dihydroisoquinoline-2(1H)-sulfonamide], the IC50 in series [4] was > 10000 nM; in series [1] it was 135 nM; in series [3] it was 260 nM.
As for `O=S(=O)(Nc1ncns1)N1CCc2c(cccc2-c2ccc(C(F)(F)F)cc2C2=CCNC2)C1` [Example 34, 5-(2-(2,5-Dihydro-1H-pyrrol-3-yl)-4-(trifluoromethyl)phenyl)-N-(1,2,4-thiadiazol-5-yl)-3,4-dihydroisoquinoline-2(1H)-sulfonamide hydrochloride], the IC50 in series [4] is > 10000 nM; in series [1], 64.5 nM; in series [3], 50 nM.
With `O=S(=O)(Nc1ccncn1)N1CCc2c(cccc2-c2ccc(C(F)(F)F)cc2Br)C1` [Example 56, 5-(2-Bromo-4-(trifluoromethyl)phenyl)-N-(pyrimidin-4-yl)-3,4-dihydroisoquinoline-2(1H)-sulfonamide], the IC50 in series [4] is > 10000 nM; in series [1] it was 38900 nM; in series [3], > 10000 nM.
Regarding `O=S(=O)(Nc1ncc(F)s1)N1CCc2c(cccc2-c2ccc(C(F)(F)F)cc2-n2ccnc2)C1` [Example 38, 5-(2-(1H-Imidazol-1-yl)-4-(trifluoromethyl)phenyl)-N-(5-fluorothiazol-2-yl)-3,4-dihydroisoquinoline-2(1H)-sulfonamide], the IC50 is > 10000 nM in series [4], 91.7 nM in series [1] and 690 nM in series [3].
`Nc1cc(-c2cc(C(F)(F)F)ccc2-c2cccc3c2CCN(S(=O)(=O)Nc2ncns2)C3)ccn1` [Example 18, 5-(2-(2-Aminopyridin-4-yl)-4-(trifluoromethyl)phenyl)-N-(1,2,4-thiadiazol-5-yl)-3,4-dihydroisoquinoline-2(1H)-sulfonamide]: the figures for the IC50 in series [4], in series [1] and in series [3] were > 10000 nM, 45.3 nM and 70 nM, respectively.
For `COc1cc(C2CC2)ccc1-c1cccc2c1CCN(S(=O)(=O)Nc1ncns1)C2` [Example 45, 5-(4-Cyclopropyl-2-methoxyphenyl)-N-(1,2,4-thiadiazol-5-yl)-3,4-dihydroisoquinoline-2(1H)-sulfonamide], the IC50 in series [4] is > 10000 nM; in series [1] it was 67.5 nM; in series [3] it was 870 nM.
As for `O=S(=O)(Nc1ncns1)N1CCc2c(cccc2-c2ccc(Cl)cc2Cl)C1` [Example 12, 5-(2,4-Dichlorophenyl)-N-(1,2,4-thiadiazol-5-yl)-3,4-dihydroisoquinoline-2(1H)-sulfonamide], the half-inhibitory concentration (IC50) was > 10000 nM in series [4], 2410 nM in series [1] and 1330 nM in series [3].
Take `COc1cc(F)ccc1-c1cccc2c1CCN(S(=O)(=O)Nc1ncns1)C2` [Example 30, 5-(4-Fluoro-2-methoxyphenyl)-N-(1,2,4-thiadiazol-5-yl)-3,4-dihydroisoquinoline-2(1H)-sulfonamide]: the IC50 is > 10000 nM in series [4], 137 nM in series [1] and 560 nM in series [3].
For the compound `O=S(=O)(Nc1ncns1)N1CCc2c(cccc2-c2ccc(C(F)(F)F)cc2-c2ccncc2)C1` [Example 2, 5-(2-(Pyridin-4-yl)-4-(trifluoromethyl)phenyl)-N-(1,2,4-thiadiazol-5-yl)-3,4-dihydroisoquinoline-2(1H)-sulfonamide], the concentration for half-maximal inhibition (IC50) was > 10000 nM in series [4], 217 nM in series [1] and 640 nM in series [3].
For the compound `O=S(=O)(Nc1ncc(F)s1)N1CCc2c(cccc2-c2ccc(C(F)(F)F)cc2C2CCNCC2)C1` [Example 35, N-(5-Fluorothiazol-2-yl)-5-(2-(piperidin-4-yl)-4-(trifluoromethyl)phenyl)-3,4-dihydroisoquinoline-2(1H)-sulfonamide hydrochloride], the IC50 is > 10000 nM in series [4], 315 nM in series [1] and 170 nM in series [3].

As a reminder, the IC50 is the concentration at which inhibition is half-maximal.
